Results taken from patent US20190078161A1, “METHOD FOR IDENTIFYING CLINICAL TRIAL RESPONDERS FROM A PLACEBO GROUP IN MAJOR DEPRESSION” (Tekada Pharmaceutical Company Limited, priority 2016, published 2019).

Key:
Format in all cases: in vivo, human
adult patients with MDD [1] = test: TAK-315 Trial: change from baseline in MADRS total score, 8 weeks of treatment
Method: (§1) Multicenter, randomized, double-blind, parallel-group, placebo-controlled, drug-referenced, fixed-dose studies were conducted to evaluate the efficacy and safety of vortioxetine in the acute treatment of adult patients with MDD. A total of 595 individuals meeting the diagnostic criteria from the DSM-IV-TR for recurrent MDD were included in the studies, TAK-315, -316 and -317. The current major depressive disorder for each individual was confirmed by the Structured Clinical Interview for DSM Disorders (SCID). […] Individuals were treated with 10, 15 or 20 mg vortioxetine, or a different drug, or administered a placebo daily for 8 weeks.
(§2) Subjects were seen weekly during the first 2 weeks of treatment and then every 2 weeks up to the end of the 8-week treatment period. The primary outcome measure was change from baseline in MADRS total score after 8 Weeks of treatment. MADRS is a depression rating scale consisting of 10 items, each rated 0 (no symptom) to 6 (severe symptom). The 10 items represent the core symptoms of depressive illness. The rating is based on a clinical interview with the patient, moving from broadly phrased questions about symptoms to more detailed ones, which allow a precise rating of severity, covering the most recent 7 days. Total score is from 0 to 60, with a higher the score being the more severe. […]

adult patients with MDD [2] = test: Combined TAK-315 and TAK-316 Trials: predicted MADRS response rate by 24-SNP placebo subgroup
Method: as §1
Secondary outcome measures included the proportion of responders at week 8 (responders defined as a 50% decrease in MADRS total score from baseline); a change from baseline in MADRS total score at week 8; and a change in clinical status using CGI-I score at week 8. The CGI-I scale is a 7-point scale rated from 1 (very much improved) to 7 (very much worse). The investigator rated the patient's overall improvement relative to baseline, whether or not, in the opinion of the investigator, this was entirely due to the treatment.
A main effect model was utilized to identify genes or single variants prognostic of response using the placebo samples.
In the placebo arm, the mean response rate in the subgroup [N=125; BM(+)] was 47.33% (CL: 0.38-0.57) and not in the subgroup [N=94; BM(−)] was 15.52% (CL: 0.1-0.25). The subgroup size in the placebo arm was 57.1% [BM(+)] and 42.9% [BM(−)]. […] The placebo subgroup size in the Vortioxetine 20 mg treat arm was 45.9(%) [BM(+), N=89] and 54.1% [BM(−), N=105].
FIG. 8 provides a comparison of the 24 SNP placebo model in the three trials' (TAK-315, 316 & 317) placebo arms and the 20 mg vortioxetine dose in TAK-315 and -316. […] In the placebo arm the mean response rate in the subgroup [N=187; BM(+)] was 46.63% (CL: 0.39-0.55) and not in the subgroup [N=148; BM(−)] was 17.02% (CL: 0.12-0.24). The subgroup size in the placebo arm was 55.8% [BM(+)] and 44.2% [BM(−)]. […] The subgroup size in the Vortioxetine 20 mg treat arm was 45.9% [BM(+), N=89] and 54.1% [BM(−), N=105].

adult patients with MDD [3] = test: TAK-316 Trial: change from baseline in MADRS total score, 8 weeks of treatment
Method: as §1, §2

[4] = 20 mg vortioxetine daily, 8 weeks

Compound: Cc1ccc(Sc2ccccc2N2CCNCC2)c(C)c1 [vortioxetine]
- LS mean (SE) change from baseline in MADRS score (adult patients with MDD [1]; [4]): −15.56 (1.67)
- LS mean difference in MADRS change, active vs. placebo BM(+) (adult patients with MDD [1]; 20 mg vortioxetine vs 24-SNP Placebo BM(+) subgroup, SE 2.11): 0.12
- mean response rate (MADRS, LSmean predicted response rate) (adult patients with MDD [2]; Vortioxetine 20 mg arm (TAK-315 and -316), placebo BM(+) subgroup N=89, analysis with TAK-315/316/317 placebo arms (FIG. 8)): 36.00%
- mean response rate (MADRS, LSmean predicted response rate) (adult patients with MDD [2]; Vortioxetine 20 mg arm (TAK-315 and -316), placebo BM(−) subgroup N=105, analysis with TAK-315/316/317 placebo arms (FIG. 8)): 44.0%
- mean response rate (MADRS, LSmean predicted response rate) (adult patients with MDD [2]; Vortioxetine 20 mg arm, placebo BM(+) subgroup N=89, TAK-315/316 analysis (FIG. 6)): 35.96%
- mean response rate (MADRS, LSmean predicted response rate) (adult patients with MDD [2]; Vortioxetine 20 mg arm, placebo BM(−) subgroup N=105, TAK-315/316 analysis (FIG. 6)): 43.0%
- LS mean (SE) change from baseline in MADRS score (adult patients with MDD [3]; [4]): −13.87 (1.63)
- LS mean difference in MADRS change, active vs. placebo BM(+) (adult patients with MDD [3]; 20 mg vortioxetine vs 24-SNP Placebo BM(+) subgroup, SE 2.14): 0.12
